# Assay results: patent publication US10111874B2, “Combination therapies for treatment of cancer” (Araxes Pharma LLC, priority 2014, dated 2018)
# Biological target: T1, KRAS G12C 1-169, his-tagged protein, GDP-loaded (Homo sapiens, UniProt P01116, G12C)
# T1 construct: KRAS G12C 1-169, his-tagged protein, GDP-loaded
# Test: Biochemical assay: covalent binding to KRAS G12C analyzed by mass spectrometry; note: test concentration or dose not given here
# Settings: compounds 1-47, measured at 24 h
# T1 sequence (P01116 1-169 isoform P01116-2 G12C): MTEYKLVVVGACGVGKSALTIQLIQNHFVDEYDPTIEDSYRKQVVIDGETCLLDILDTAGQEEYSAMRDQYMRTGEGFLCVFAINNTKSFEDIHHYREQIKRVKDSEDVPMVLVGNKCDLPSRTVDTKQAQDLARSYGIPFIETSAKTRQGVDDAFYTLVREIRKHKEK
row,SMILES,Binding %
1,"C=CC(=O)N1CC(N2CCN(C(=O)CNc3cc(Cl)c(Cl)cc3O)CC2)C1 [Example 38, 1-(3-(4-(2-(4,5-dichloro-2-hydroxyphenylamino)acetyl)piperazin-1-yl)azetidin-1-yl)prop-2-en-1-one]",++ (++indicates binding activity greater than 25% and up to 50%)
2,"C=CC(=O)NC1CN(C2CN(C(=O)CNc3cc(Cl)c(Cl)cc3O)C2)C1 [Example 39, N-(1′-(2-(4,5-dichloro-2-hydroxyphenylamino)acetyl)-1,3′-biazetidin-3-yl)acrylamide]",+ (+indicates binding activity from 5% to 25%)

# Same assay, conditions: compounds 247-342, measured at 30 min
row,SMILES,Binding %
1,"C=CC(=O)N1CCN(c2ncnc3cc(-c4cc(C(C)(C)O)ccc4F)c(Cl)cc23)CC1 [Compound I-267, 1-(4-(6-chloro-7-(2-fluoro-5-(2-hydroxypropan-2-yl)phenyl)quinazolin-4-yl)piperazin-1-yl)prop-2-en-1-one]",+ (+indicates binding activity from 5% to 25%)
2,"C=CC(=O)N1CCN(c2ncnc3cc(-c4c(C)ccc5cn[nH]c45)c(Cl)cc23)CC1 [Compound I-268, 1-(4-(6-chloro-7-(6-methyl-1H-indazol-7-yl)quinazolin-4-yl)piperazin-1-yl)prop-2-en-1-one]",+++ (+++indicates binding activity greater than 50% and up to 75%)
3,"C=CC(=O)N1CCN(c2c(C#N)cnc3c(F)c(-c4c(O)ccc5ccccc45)c(Cl)cc23)CC1 [Compound I-269, 4-(4-acryloylpiperazin-1-yl)-6-chloro-8-fluoro-7-(2-hydroxynaphthalen-1-yl)quinoline-3-carbonitrile]",+++ (+++indicates binding activity greater than 50% and up to 75%)
4,"C=CC(=O)N1CCN(c2c(C#N)cnc3cc(-c4c(C)ccc5[nH]ncc45)c(Cl)cc23)CC1 [Compound I-270, 4-(4-acryloylpiperazin-1-yl)-6-chloro-7-(5-methyl-1H-indazol-4-yl)quinoline-3-carbonitrile]",+++ (+++indicates binding activity greater than 50% and up to 75%)
5,C=CC(=O)N1CCN(c2ncnc3c(F)c(-c4ccccc4F)c(C(F)(F)F)cc23)CC1 [Compound I-271],+++ (+++indicates binding activity greater than 50% and up to 75%)
6,"C=CC(=O)N1CCN(c2ncnc3c(F)c(-c4c(O)cccc4F)c(C(F)(F)F)cc23)CC1 [Compound I-273, 1-(4-(8-fluoro-7-(2-dluoro-6-hydroxyphenyl)-6-(trifluoromethyl)quinaozlin-4-yl)piperazin-1-yl)prop-2-en-1-one]",++++ (++++indicates binding activity greater than 75%)
7,"C=CC(=O)N1CCN(c2ncnc3c(F)c(-c4c(C)ccc5cn[nH]c45)c(Cl)cc23)CC1 [Compound I-274, 1-(4-(6-chloro-8-fluoro-7-(6-methyl-1H-indazol-7-yl)quinazolin-4-yl)piperazin-1-yl)prop-2-en-1-one]",++++ (++++indicates binding activity greater than 75%)
8,"C=CC(=O)N1CCN(c2ncnc3c(F)c(-c4ccc(F)cc4C(F)(F)F)c(Cl)cc23)CC1 [Compound I-275, 1-(4-(6-chloro-8-fluoro-7-(4-fluoro-2-(trifluoromethyl)phenyl)quinazolin-4-yl)piperazin-1-yl)prop-2-en-1-one]",++ (++indicates binding activity greater than 25% and up to 50%)
9,"C=CC(=O)N1CCN(c2ncnc3cc(-c4cccc(-c5ccn[nH]5)c4)c(Cl)cc23)CC1 [Compound I-276, 1-(4-(7-(3-(1H-pyrazol-5-yl)phenyl)-6-chloroquinazolin-4-yl)piperazin-1-yl)prop-2-en-1-one]",+ (+indicates binding activity from 5% to 25%)
10,"C=CC(=O)N1CCN(c2ncnc3c(F)c(-c4c(F)ccc(F)c4O)c(Cl)cc23)CC1 [Compound I-277, 1-(4-(6-chloro-7-(3,6-ddifluoro-2-hydroxyphenyl)-8-fluoroquinazolin-4-yl)piperazin-1-yl)prop-2-en-1-one]",+ (+indicates binding activity from 5% to 25%)
11,"C=CC(=O)N1CCN(c2ncnc3c(F)c(-c4ccccc4C(C)(C)O)c(Cl)cc23)CC1 [Compound I-278, 1-(4-(6-chloro-8-fluoro-7-(2-(2-hydroxypropan-2-yl)phenyl)quinazolin-4-yl)piperazin-1-yl)prop-2-en-1-one]",++ (++indicates binding activity greater than 25% and up to 50%)
12,"C=CC(=O)N1CCN(c2cnnc3cc(-c4c(O)cccc4F)c(C(F)(F)F)cc23)CC1 [Compound I-279, 1-(4-(7-(2-fluoro-6-hydroxyphenyl)-6-(trifluoromethyl)cinnolin-4-yl)piperazin-1-yl)prop-2-en-1-one]",+++ (+++indicates binding activity greater than 50% and up to 75%)
13,"C=CC(=O)N1CCN(c2ncnc3c(F)c(-c4c(O)cc(F)cc4F)c(Cl)cc23)CC1 [Compound I-280, 1-(4-(6-chloro-7-(2,4-difluoro-6-hydroxyphenyl)-8-fluoroquinazolin-4-yl)piperazin-1-yl)prop-2-en-1-one]",+++ (+++indicates binding activity greater than 50% and up to 75%)
14,"C=CC(=O)N1CCN(c2ncnc3c(F)c(-c4cc(-c5c[nH]cn5)ccc4F)c(Cl)cc23)CC1 [Compound I-281, 1-(4-(6-chloro-8-fluoro-7-(2-fluoro-5-(1H-imidazol-4-yl)phenyl)quinazolin-4-yl)piperazin-1-yl)prop-2-en-1-one]",++ (++indicates binding activity greater than 25% and up to 50%)
15,"CC(C)/C=C(\C#N)C(=O)N1CCN(c2ncnc3c(F)c(-c4c(O)cccc4F)c(Cl)cc23)CC1 [Compound I-282, (E)-2-(4-(6-chloro-8-fluoro-7-(2-fluoro-6-hydroxyphenyl)quinazolin-4-yl)piperazine-1-carbonyl)-4-methylpent-2-enenitrile]",+++ (+++indicates binding activity greater than 50% and up to 75%)
16,"N#C/C(=C\c1cncs1)C(=O)N1CCN(c2ncnc3c(F)c(-c4c(O)cccc4F)c(Cl)cc23)CC1 [Compound I-283, (E)-2-(4-(6-chloro-8-fluoro-7-(2-fluoro-6-hydroxyphenyl)quinazolin-4-yl)piperazine-1-carbonyl)-3-(thiazol-5-yl)acrylonitrile]",++ (++indicates binding activity greater than 25% and up to 50%)
17,"N#C/C(=C\c1ccccn1)C(=O)N1CCN(c2ncnc3c(F)c(-c4c(O)cccc4F)c(Cl)cc23)CC1 [Compound I-284, (E)-2-(4-(6-chloro-8-fluoro-7-(2-fluoro-6-hydroxyphenyl)quinazolin-4-yl)piperazine-1-carbonyl)-3-(pyridin-2-yl)acrylonitrile]",++++ (++++indicates binding activity greater than 75%)
18,"C=CC(=O)N1CCN(c2c(C#N)cnc3c(F)c(-c4ccccc4C(F)(F)F)c(Cl)cc23)CC1 [Compound I-285, 4-(4-acryloylpiperazin-1-yl)-6-chloro-8-fluoro-7-(2-(trifluoromethyl)phenyl) quinoline-3-carbonitrile]",+++ (+++indicates binding activity greater than 50% and up to 75%)
19,"C=CC(=O)N1CCN(c2ncnc3c(Cl)c(-c4c(OC)ccc5ccccc45)c(Cl)cc23)CC1 [Compound I-286, 1-(4-(6,8-dichloro-7-(2-methoxynaphthalen-1-yl)quinazolin-4-yl)piperazin-1-yl)prop-2-en-1-one]",+ (+indicates binding activity from 5% to 25%)
20,"C=CC(=O)N1CCN(c2ncnc3c(F)c(-c4c(C)cccc4OC)c(Cl)cc23)CC1 [Compound I-287, 1-(4-(6-chloro-8-fluoro-7-(2-methoxy-6-methylphenyl)quinazolin-4-yl)piperazin-1-yl)prop-2-en-1-one]",++ (++indicates binding activity greater than 25% and up to 50%)
21,"C=CC(=O)N1CCN(c2ncnc3c(F)c(-c4c[nH]c5ccccc45)c(Cl)cc23)CC1 [Compound I-288, 1-(4-(6-chloro-8-fluoro-7-(1H-indol-3-yl)quinazolin-4-yl)piperazin-1-yl)prop-2-en-1-one]",++ (++indicates binding activity greater than 25% and up to 50%)
22,"C=CC(=O)N1CCN(c2ncnc3c(F)c(-c4c(O)cccc4Cl)c(Cl)cc23)CC1 [Compound I-289, 1-(4-(6-chloro-7-(2-chloro-6-hydroxyphenyl)-8-fluoroquinazolin-4-yl)piperazin-1-yl)prop-2-en-1-one]",+++ (+++indicates binding activity greater than 50% and up to 75%)
23,"C=CC(=O)N1CCN(c2ncnc3c(F)c(-c4c(C)cccc4Cl)c(Cl)cc23)CC1 [Compound I-290, 1-(4-(6-chloro-7-(2-chloro-6-methylphenyl)-8-fluoroquinazolin-4-yl)piperazin-1-yl)prop-2-en-1-one]",+++ (+++indicates binding activity greater than 50% and up to 75%)
24,"C=CC(=O)N1CCN(c2c(C#N)cnc3c(F)c(-c4cc(O)cc5ccccc45)c(Cl)cc23)CC1 [Compound I-291, 4-(4-acryloylpiperazin-1-yl)-6-chloro-8-fluoro-7-(3-hydroxynaphthalen-1-yl)quinoline-3-carbonitrile]",++++ (++++indicates binding activity greater than 75%)
25,"C=CC(=O)N1CCN(c2ncnc3c(F)c(-c4ccc(F)cc4F)c(C)cc23)CC1 [Compound I-292, 1-(4-(7-(2,4-difluorophenyl)-8-fluoro-6-methylquinazolin-4-yl)piperazin-1-yl)prop-2-en-1-one]",+ (+indicates binding activity from 5% to 25%)
26,"C=CC(=O)N1CCN(c2c(C#N)cnc3c(F)c(-c4c(C)ccc5[nH]ncc45)c(Cl)cc23)CC1 [Compound I-293, 4-(4-acryloylpiperazin-1-yl)-6-chloro-8-fluoro-7-(5-methyl-1H-indazol-4-yl)quinoline-3-carbonitrile]",++++ (++++indicates binding activity greater than 75%)
27,C=CC(=O)N1CCN(c2ncnc3c(F)c(-c4c(C)ccc5[nH]ncc45)c(Cl)cc23)CC1CC#N (stereo not drawn) [Compound I-294],++++ (++++indicates binding activity greater than 75%)
28,"Cc1ccc2[nH]ncc2c1-c1c(Cl)cc2c(N3CCN(C(=O)/C=C/CN(C)C)CC3)ncnc2c1F [Compound I-295, (E)-1-(4-(6-chloro-8-fluoro-7-(5-methyl-1H-indazol-4-yl)quinazolin-4-yl)piperazin-1-yl)-4-(dimethylamino)but-2-en-1-one]",+ (+indicates binding activity from 5% to 25%)
